Patent publication US20230312522A1, “CYP46A1 INHIBITORS AND METHODS OF USE THEREOF” (Sage Therapeutics, Inc., priority 2020, published 2023)

Target: CYP46A1 (Homo sapiens (Human), UniProt Q9Y6A2)
Experiment: CYP46A1 enzyme assay (testosterone substrate, HPLC-MS)
Assay type: biochemical
Conditions: CYP46A1 5 μM, Testosterone 10 mM, NADPH-generating system, 37° C., 15 minutes
Protocol: Briefly, in a 384-well plate format, 10 μL per well of an enzyme-substrate mixture of CYP46A1 (5 μM final concentration) and Testosterone ([…] final concentration) were dispensed to wells containing test compound. For CYP46A1 titration, 5 μL per well of serially diluted CYP46A1 (concentrations including 10 μM, 5 μM, and 2.5 μM) and Testosterone (concentration of […]) were dispensed. For Testosterone titration, 5 μL per well of serially diluted Testosterone (concentrations including 10 μM, 5 μM, and 2.5 μM) and CYP46A1 (concentration of 5 μM) were dispensed. The plates were centrifuged at 1000 rpm for 30 seconds, and then sealed and incubated at 37° C. for 30 minutes. The plate was removed from the incubator, and then 10 μL per well of NADPH-generating system were dispensed to initiate the reaction. The plates were incubated at 37° C. for 15 minutes, added with 80 μL per well of 100% methanol consisting 1 ng/ml diclofenac as internal standard, and then transferred for HPLC-MS.
In Table 2, A indicates a CYP46A1 IC50<0.1 μM, B indicates a CYP46A1 IC50 (μM) of 0.1 μM to <1.0 μM, and C indicates a CYP46A1 IC50 (μM) of ≥1.0 μM

Chain of CYP46A1 (Q9Y6A2 whole entry, species assumed): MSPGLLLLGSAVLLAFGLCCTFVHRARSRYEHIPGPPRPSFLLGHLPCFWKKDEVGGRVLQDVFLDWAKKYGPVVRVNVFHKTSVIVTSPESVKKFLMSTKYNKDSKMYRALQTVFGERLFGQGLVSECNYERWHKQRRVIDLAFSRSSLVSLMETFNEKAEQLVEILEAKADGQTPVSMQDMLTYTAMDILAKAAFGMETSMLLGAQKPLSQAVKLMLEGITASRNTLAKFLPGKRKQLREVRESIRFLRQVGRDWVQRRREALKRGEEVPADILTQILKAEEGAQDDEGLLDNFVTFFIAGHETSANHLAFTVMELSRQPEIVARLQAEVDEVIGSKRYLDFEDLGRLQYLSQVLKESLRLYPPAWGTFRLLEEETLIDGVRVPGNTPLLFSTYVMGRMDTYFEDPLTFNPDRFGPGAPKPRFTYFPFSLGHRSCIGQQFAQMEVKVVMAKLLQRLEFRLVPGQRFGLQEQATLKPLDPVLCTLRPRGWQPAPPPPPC

Row | SMILES | IC50 [nM]
1 | N#Cc1ccc(C(=O)C2(F)CCN(C(=O)c3cccnc3-c3ccncn3)CC2)c(F)c1 [Compound 17, 3-fluoro-4-(4-fluoro-1-(2-(pyrimidin-4-yl)nicotinoyl)piperidine-4-carbonyl)benzonitrile] | 100 to 1000
2 | N#Cc1ccc(CC2(F)CCN(C(=O)c3cccnc3-c3ccncn3)CC2)nc1 [Compound 21, 6-((4-fluoro-1-(2-(pyrimidin-4-yl)nicotinoyl)piperidin-4-yl)methyl)nicotinonitrile] | 100 to 1000
3 | N#Cc1cc(F)c(CC2(F)CCN(C(=O)c3cccnc3-c3ccncn3)CC2)c(F)c1 [Compound 11, 3,5-difluoro-4-((4-fluoro-1-(2-(pyrimidin-4-yl)nicotinoyl)piperidin-4-yl)methyl)benzonitrile] | < 100
4 | O=C(c1cccnc1-c1ccncn1)N1CCC(F)(Cc2ccc(C3CC3)cn2)CC1 [Compound 7, (4-((5-cyclopropylpyridin-2-yl)methyl)-4-fluoropiperidin-1-yl)(2-(pyrimidin-4-yl)pyridin-3-yl)methanone] | < 100
5 | O=C(c1cccnc1-c1ccncc1)N1CCC(F)(CC2CCOCC2)CC1 [Compound 3] | ≥ 1000
6 | N#Cc1ccc([C@H](O)C2(F)CCN(C(=O)c3cccnc3-c3ccncn3)CC2)c(F)c1 [Compound 15] | < 100
7 | O=C(c1cccnc1-c1ccncn1)N1CCC(F)(Cc2ccc(F)cn2)CC1 [Compound 10, (4-fluoro-4-((5-fluoropyridin-2-yl)methyl)piperidin-1-yl)(2-(pyrimidin-4-yl)pyridin-3-yl)methanone] | 100 to 1000
8 | N#Cc1ccc(CC2(F)CCN(C(=O)c3cccnc3-c3ccncn3)CC2)c(F)c1 [Compound 9, 3-fluoro-4-((4-fluoro-1-(2-(pyrimidin-4-yl)nicotinoyl)piperidin-4-yl)methyl)benzonitrile] | < 100
9 | O=C(c1cccnc1-c1ccncn1)N1CCC(F)(Cc2cc(C(F)(F)F)ccn2)CC1 [Compound 25, (4-fluoro-4-((4-(trifluoromethyl)pyridin-2-yl)methyl)piperidin-1-yl)(2-(pyrimidin-4-yl)pyridin-3-yl)methanone] | 100 to 1000
10 | O=C(c1cccnc1-c1ccncn1)N1CCC(F)(C(=O)c2ccc(C(F)(F)F)cc2)CC1 [Compound 12, (4-fluoro-1-(2-(pyrimidin-4-yl)nicotinoyl)piperidin-4-yl)(4-(trifluoromethyl)phenyl)methanone] | 100 to 1000
11 | N#Cc1ccc([C@@H](O)C2(F)CCN(C(=O)c3cccnc3-c3ccncn3)CC2)c(F)c1 [Compound 16] | 100 to 1000
12 | O=C(c1cccnc1-c1ccncn1)N1CCC(F)(CC2CCOCC2)CC1 [Compound 2, (4-fluoro-4-((tetrahydro-2H-pyran-4-yl)methyl)piperidin-1-yl)(2-(pyrimidin-4-yl)pyridin-3-yl)methanone] | ≥ 1000
13 | O=C(c1cccnc1-c1ccncn1)N1CCC(F)(Cc2ccc(C(F)(F)F)cc2)CC1 [Compound 4, (4-fluoro-4-(4-(trifluoromethyl)benzyl)piperidin-1-yl)(2-(pyrimidin-4-yl)pyridin-3-yl)methanone] | < 100
14 | O=C(c1cccnc1-c1ccncn1)N1CCC(F)(Cc2ccc(OC(F)(F)F)cn2)CC1 [Compound 27, (4-fluoro-4-((5-(trifluoromethoxy)pyridin-2-yl)methyl)piperidin-1-yl)(2-(pyrimidin-4-yl)pyridin-3-yl)methanone] | 100 to 1000
15 | O=C(c1cccnc1-c1ccncn1)N1CCC(F)(Cc2ccccn2)CC1 [Compound 5, (4-fluoro-4-(pyridin-2-ylmethyl)piperidin-1-yl)(2-(pyrimidin-4-yl)pyridin-3-yl)methanone] | < 100
16 | N#Cc1ccc(CC2(F)CCN(C(=O)c3cccnc3-c3ccncn3)CC2)cc1 [Compound 6, 4-((4-fluoro-1-(2-(pyrimidin-4-yl)nicotinoyl)piperidin-4-yl)methyl)benzonitrile] | < 100
17 | O=C(c1cccnc1-c1ccncn1)N1CCC(F)(Cc2ccc(F)cc2)CC1 [Compound 1, (4-fluoro-4-(4-fluorobenzyl)piperidin-1-yl)(2-(pyrimidin-4-yl)pyridin-3-yl)methanone] | < 100

The next lines start with the values.

Row | IC50 [nM] | SMILES
18 | 100 to 1000 | O=C(c1cccnc1-c1ccncn1)N1CCC(F)(Cc2ncc(Cl)cc2F)CC1 [Compound 30, (4-((5-chloro-3-fluoropyridin-2-yl)methyl)-4-fluoropiperidin-1-yl)(2-(pyrimidin-4-yl)pyridin-3-yl)methanone]
19 | 100 to 1000 | O=C(c1cccnc1-c1ccncn1)N1CCC(F)(Cc2cccnn2)CC1 [Compound 48, (4-fluoro-4-(pyridazin-3-ylmethyl)piperidin-1-yl)(2-(pyrimidin-4-yl)pyridin-3-yl)methanone]
20 | 100 to 1000 | Cc1cnc(CC2(F)CCN(C(=O)c3cccnc3-c3ccncn3)CC2)cn1 [Compound 50, (4-fluoro-4-((5-methylpyrazin-2-yl)methyl)piperidin-1-yl)(2-(pyrimidin-4-yl)pyridin-3-yl)methanone]
21 | 100 to 1000 | O=C(c1cccnc1-c1ccncn1)N1CCC(F)(Cc2cnc(C(F)(F)F)nc2)CC1 [Compound 41, (4-fluoro-4-((2-(trifluoromethyl)pyrimidin-5-yl)methyl)piperidin-1-yl)(2-(pyrimidin-4-yl)pyridin-3-yl)methanone]
22 | 100 to 1000 | O=C(c1cccnc1-c1ccncn1)N1CCC(F)(Cc2cnccn2)CC1 [Compound 44, (4-fluoro-4-(pyrazin-2-ylmethyl)piperidin-1-yl)(2-(pyrimidin-4-yl)pyridin-3-yl)methanone]
23 | 100 to 1000 | O=C(c1cccnc1-c1ccncc1)N1CCC(F)(Cc2cccnn2)CC1 [Compound 49, [2,4′-bipyridin]-3-yl(4-fluoro-4-(pyridazin-3-ylmethyl)piperidin-1-yl)methanone]
24 | 100 to 1000 | Cc1ccc(CC2(F)CCN(C(=O)c3cccnc3-c3ccncn3)CC2)cn1 [Compound 53]
25 | 100 to 1000 | O=C(c1cccnc1-c1ccncn1)N1CCC(F)(Cc2cnc(C(F)(F)F)cn2)CC1 [Compound 40, (4-fluoro-4-((5-(trifluoromethyl)pyrazin-2-yl)methyl)piperidin-1-yl)(2-(pyrimidin-4-yl)pyridin-3-yl)methanone]
26 | 100 to 1000 | O=C(c1cccnc1-c1ccncn1)N1CCC(F)(Cc2ccc(C(F)(F)F)nn2)CC1 [Compound 36, (4-fluoro-4-((6-(trifluoromethyl)pyridazin-3-yl)methyl)piperidin-1-yl)(2-(pyrimidin-4-yl)pyridin-3-yl)methanone]
27 | 100 to 1000 | Cc1ccc(CC2(F)CCN(C(=O)c3cccnc3-c3ccncn3)CC2)nc1 [Compound 42, (4-fluoro-4-((5-methylpyridin-2-yl)methyl)piperidin-1-yl)(2-(pyrimidin-4-yl)pyridin-3-yl)methanone]
28 | 100 to 1000 | O=C(c1cccnc1-c1ccncc1)N1CCC(F)(Cc2ccc(C(F)(F)F)nn2)CC1 [Compound 37, [2,4′-bipyridin]-3-yl(4-fluoro-4-((6-(trifluoromethyl)pyridazin-3-yl)methyl)piperidin-1-yl)methanone]
